Measurements: patent US20240033244A1, “COMPOSITIONS AND METHODS FOR INHIBITING YTHDF1” (SHANGHAI INSTITUTE OF MATERIA MEDICA, CHINESE ACADEMY OF …, priority 2020, published 2024)

Columns and labels:
YTHDF1 (361-559) = target: T1, YTHDF1 (361-559) (Homo sapiens, UniProt Q9BYJ9); experiment: NMR CPMG binding experiment; conditions: 200 μM SAA; 5 μM, 10 μM and 20 μM YTHDF1
T1 construct: GST (N, cleaved yes); made in house; host or cells: E. coli BL21 (DE3)
T1 sequence (Q9BYJ9 with tags, fused parts or gaps): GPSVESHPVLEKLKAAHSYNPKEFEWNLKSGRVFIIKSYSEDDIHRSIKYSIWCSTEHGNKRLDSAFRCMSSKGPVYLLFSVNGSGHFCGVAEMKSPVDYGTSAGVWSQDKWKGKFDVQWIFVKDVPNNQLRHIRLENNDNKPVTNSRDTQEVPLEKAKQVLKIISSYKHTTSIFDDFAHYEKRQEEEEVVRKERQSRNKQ
Method: NMR CPMG experiment was performed at 25° C. using Bruker Avance III spectrometer (600 MHz proton frequency) with a cryogenically cooled probe (Bruker biospin, Germany). YTHDF1 (361-559) was diluted to 20 μM, 10 μM and 5 μM in phosphate buffer (20 mM NaH2PO4, 20 mM Na2HPO4, 150 mM NaCl, pH 7.4, D2O). […] The solvent-suppressed 1D ^1H CPMG was obtained via the pulse sequence (RD-90°-(τ-180°-τ) n-ACQ). In the pre-saturation procedure, a 54.78 dB pulse in 4 s duration of the recycle delay (RD) was applied to eliminate water resonance. Then, the 900 pulse length was modulated to 11.82 μs approximately. And at last, a total of 4 dummy scans and 64 free induction decays (FIDs) were collected into […] acquisition points, covering a spectral width of 12 kHz (20 ppm) with the acquisition time (ACQ) of 2.73 s.
Then, qualitative and quantitative experiments were performed to explore the binding between SAA and YTHDF1. Firstly, nuclear magnetic resonance (NMR) Carr-Purcell-Meiboom-Gill (CPMG) experiments were conducted.

YTHDF1 in 293T cells = target: T2, YTHDF1 in 293T cells (Homo sapiens, UniProt Q9BYJ9); experiment: Cellular thermal shift assay (CETSA) in 293T cells; assay type: cell-based; conditions: 100 μM SAA for 4 hours
T2 construct: endogenous in cells; host or cells: 293T (ATCC)
Method: The cellular thermal shift assay (CETSA) was conducted according to the protocol reported previously. 293T cell line (ATCC) used in the assay was cultured at 37° C., 5% CO2, in DMEM culture medium (Life Technologies) containing 10% fetal calf serum (Gibco, U.S.A.), 1% penicillin/streptomycin (Life Technologies). 293T cells were collected after incubated with PBS buffer as control or 100 μM SAA for 4 hours and equally divided into twelve parts, respectively. The divided parts were heated under series of temperature range from 39° C. to 59° C. for 3 minutes and cooled at 4° C. for 3 minutes immediately. Then, the cells were lysed via freeze-thawing with liquid nitrogen and the protein samples were collected by centrifugation. Though adding in SDS loading and boiling at 99° C. for 5 minutes, the samples were prepared for western blot detection. In the western blot assays, GAPDH was used as the internal reference. And the quantitative analysis of the results of the assay was performed via ImageJ software.
Further, the binding of SAA to YTHDF1 in cells was also examined. Cellular thermal shift (CETSA) assay was performed with 293T cell line, which was collected for heating at temperatures as indicated. After incubating the cells with 100 μM SAA for 4 hours, YTHDF1 protein in the incubated 293T cells were examined with western blot. […]

B16-OVA tumor = B16-OVA tumor growth in Ythdf1F/F and CD11ccreYthdf1F/F mice; assay type: in vivo, mouse; conditions: 2×10^6 B16-OVA, 10 μM SAA day 9 and day 11
Method: For B6 mice tumor growth, 5×10^5 B16-OVA or 1×10^6 E.G7-OVA tumor cells were inoculated subcutaneously (s.c.) into the flank of mice. Tumor length (a) and width (b) was measured every two days and tumor volume was calculated by the formula ab^2/2. For the inhibitor treatment, 10 μM SAA or DMSO was injected intraperitoneally (i.p.) on day 9 and 11 after tumor inoculation. For other mice model (rag1^−/− and Ythdf1 conditional knockout), times and dose of inhibitor treatment was the same. For α-PD-L1 and SAA combination treatment, 5×10^5 B16-OVA tumor cells were inoculated subcutaneously into the flank of mice. 100 μg α-PD-L1 antibody (clone 10F.9G2) or rat immunoglobulin were administered at day 9 after tumor inoculation. 10 μM SAA or DMSO was administered in the same way on day 9 and 11 after tumor injection.
To determine whether DCs are the major targets of SAA, Ythdf1^F/F and CD11c^creYthdf1^F/F mice were injected subcutaneously with 2×10^6 B16-OVA cells. Then, 10 μM SAA was injected to each mouse on day 9 and day 11, and tumor growth was monitored.

[1] = tested on: draining lymph node T cells; experiment: Draining lymph node T cell IFN-γ after OT1 peptide stimulation; assay type: in vivo, mouse; conditions: 1 μg/mL OT1 peptide
Method: Tumor infiltrating leukocytes were resuspended by RPMI 1640 medium at 5×10^6 per mL in 96-well plates. Phorbol-12-myristate-13-acetate (PMA) (2.5 μg/mL) and ionomycin (0.5 μg/mL) were used to stimulate T cells together with brefeldin A were added to the culture medium for 2 hours at 37° C. Cell concentration of total lymphocytes from draining lymph node was adjusted to 5×10^6 per mL in 96-well plate. 1 μg/mL OT-1 (OVA 257-264) peptide was added to the wells and stimulated for 96 hours. Samples were stained with CD45 and CD8 on ice for 30 min. Intracellular staining was performed to quantify IFN-γ and granzyme B production.
Then, lymphocytes from draining lymph node were isolated and stimulated with 1 μg/mL OT1 peptide, and IFN-γ producing cell were analyzed by FACS.

T2 sequence (Q9BYJ9 whole entry): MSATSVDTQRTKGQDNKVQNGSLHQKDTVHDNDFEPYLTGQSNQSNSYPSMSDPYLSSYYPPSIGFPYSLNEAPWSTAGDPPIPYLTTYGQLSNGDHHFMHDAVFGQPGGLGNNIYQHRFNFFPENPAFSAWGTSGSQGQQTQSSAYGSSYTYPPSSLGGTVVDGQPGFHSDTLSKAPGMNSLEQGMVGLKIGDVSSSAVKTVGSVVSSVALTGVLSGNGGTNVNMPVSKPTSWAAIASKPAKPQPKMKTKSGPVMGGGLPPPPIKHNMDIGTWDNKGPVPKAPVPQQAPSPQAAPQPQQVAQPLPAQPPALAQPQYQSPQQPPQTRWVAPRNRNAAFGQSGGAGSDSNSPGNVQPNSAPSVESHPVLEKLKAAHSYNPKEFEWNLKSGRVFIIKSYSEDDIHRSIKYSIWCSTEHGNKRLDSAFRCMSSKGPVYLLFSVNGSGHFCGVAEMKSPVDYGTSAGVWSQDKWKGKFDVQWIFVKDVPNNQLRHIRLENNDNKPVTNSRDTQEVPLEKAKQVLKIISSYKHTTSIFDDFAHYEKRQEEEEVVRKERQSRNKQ

With `O=C(/C=C/c1ccc(O)c(O)c1/C=C/c1ccc(O)c(O)c1)O[C@H](Cc1ccc(O)c(O)c1)C(=O)O` [SAA, Salvianolic Acid A] the “CPMG signal of the compound on addition of YTHDF1” value (YTHDF1 (361-559)) was “signal decreased”, the “CETSA curve shift to the right (YTHDF1 stability)” value (YTHDF1 in 293T cells) was “about 2 degrees” and the tumor growth (B16-OVA tumor; CD11ccreYthdf1F/F mice) was “no further evident effect of tumor control”. The tumor growth (B16-OVA tumor; Ythdf1F/F mice) was “showed analogous situation as observed in CD11c^creYthdf1^F/F mice” and the “IFN-γ production by DLN T cells” value [1] was “much more IFN-γ than DMSO group”.
